In patent US8604216B2, “Desferrithiocin derivatives and methods of use thereof” (University of Florida Research Foundation, Inc., priority 2003, dated 2013):

Key:
[1] = test system: iron-overloaded Cebus apella monkeys; assay: Iron clearance in iron-overloaded Cebus apella monkeys; format: in vivo; conditions: oral
Procedure: (S)-2-(4′,5′-dimethoxyphenyl)-4-methylthiazoline-4-carboxylic acid (2) was administered to iron-overloaded Cebus apella monkeys. The protocol can be found in Bergeron, R. J. et al., “Methoxylatoin of Desazadesferrithiocin Analogues: Enhanced Iron Clearing Efficiency,” J Med Chem. 46:1470-1477 (2003), the contents of which are incorporated herein by reference. Briefly, the monkeys were iron overloaded with iron dextran administered intravenously to result in an iron loading of about 500 mg per kg of body weight. At least 20 half-lives, 60 days, elapsed before the animals were used in experiments evaluating iron chelators. The iron chelator was solubilized in 40% Cremophor RH-40/water (v/v) and were administered orally to the monkeys. Fecal and urine samples were collected at 24 hour intervals beginning 4 days prior to the administration of an iron chelator and continued for 5 days after the chelator was administered. Iron concentrations in stool and urine were determined by flame atomic absorption spectroscopy. Iron chelator efficiency was calculated by dividing the net iron clearance [total iron excretion (stool plus urine) minus background] by the theoretical iron clearance and multiplying by 100. The theoretical clearance of the iron chelator was generated on the basis of a 2:1 ligand/iron complex. At a dose of 114.2 μmol/kg, the efficiency of 2 was calculated to be 14.8±2.9%. […] Approximately 20% of the iron was excreted in the urine, while the majority (approximately 80%) was eliminated in the feces. In a separate experiment, 2 was administered to iron overloaded Cebus apella at a dose of 150 μmol/kg. In this experiment, the iron clearing efficiency was calculated to be 16.1±4.1%. This efficiency was within error of the lower dose of 2 […].

[2] = test system: non-iron overloaded, fasted rats; assay: Iron clearance in bile duct-cannulated rats; format: in vivo; conditions: male Sprague-Dawley rats
Procedure: (S)-2-(4′,5′-dimethoxyphenyl)-4-thiazoline-4-carboxylic acid (1) was administered to non-iron overloaded, fasted rats that had been subjected to routine bile duct cannulation. Briefly, male Sprague-Dawley rats averaging 450 g were housed in Nalgene plastic metabolic cages during the experimental period and given free access to water. The animals were anesthetized using sodium pentobarbital (55 mg/kg) administered intraperitoneally. The bile duct was cannulated using 22-gauge polyethylene tubing. The cannula was inserted into the duct about 1 cm from the duodenum and tied snugly in place. After threading through the shoulder, the cannula was passed from the rat to the swivel inside a metal torque-transmitting tether, which was attached to a rodent jacket around the animal's chest. The cannula was directed from the rat to a Gilson microfraction collector (Middleton, Wis.) by a fluid swivel mounted above the metabolic cage. Bile samples were collected at 3 hour intervals for 24 hours. The urine sample was taken at 24 hours and handling was as previously described in Bergeron, R. J., et al., J Med Chem. 34:2072-2078 (1991), the contents of which are incorporated herein by reference.

SMILES | share of iron eliminated in the feces ([1]; 114.2 μmol/kg) | share of iron excreted in the urine ([1]; 114.2 μmol/kg) | iron clearing efficiency ([1]; 114.2 μmol/kg, in 40% Cremophor RH-40/water, stool plus urine iron minus background vs theoretical 2:1 ligand/iron complex) [%] | iron clearing efficiency ([1]; 150 μmol/kg, separate experiment) [%] | tolerability [2] | efficiency of iron excretion ([2]; bile collected for 24 hours, urine at 24 hours)
COc1ccc(C2=N[C@@](C)(C(=O)O)CS2)cc1OC [Compound 2, (S)-2-(4′,5′-dimethoxyphenyl)-4-methylthiazoline-4-carboxylic acid] | approximately 80% | Approximately 20% | 14.8±2.9 | 16.1±4.1 |  | 
COc1ccc([C@H]2NC(C(=O)O)=CS2)cc1OC [Compound 1, (S)-2-(4′,5′-dimethoxyphenyl)-4-thiazoline-4-carboxylic acid] |  |  |  |  | tolerated the drug well | less than 0.5%
